Test [1] has as its system M2 of influenza A(H1N1) viruses.
The test system of test [2] is NA enzyme activity of influenza A(H1N1) viruses. The test is classed as biochemical, influenza A(H1N1) virus.
For test [3], the system named is influenza virus. To be noted: human, in vivo; cited from earlier work.

Values joined by “and” are separate entries in the source; they are usually repeats but may differ in a detail not shown here. Identical values can stand only once. “Also recorded” adds a separate entry of the source. Like-named read-outs stand apart in the source and are kept apart here.

On to `NC12CC3CC(CC(C3)C1)C2` [amantadine], for which the “susceptibility of oseltamivir resistant A(H1N1) viruses to amantadine / M2I” value in test [1] is given as “still susceptible”.
As to `CCOC(=O)C1=C[C@@H](OC(CC)CC)[C@H](NC(C)=O)[C@@H](N)C1` [oseltamivir], the “proportion of viruses resistant against oseltamivir, phenotypic assessment” value in test [2] is 29%. In test [3], the “oseltamivir-resistance emerged in treated children” value was 18% and 16%.
What is called IC50 is the point on the concentration scale where inhibition reaches its midpoint. As to `CC(=O)N[C@H]1[C@H]([C@H](O)[C@H](O)CO)OC(C(=O)O)=C[C@@H]1N=C(N)N` [zanamivir], the “susceptibility of oseltamivir resistant A(H1N1) viruses to zanamivir” value in test [2] is on record as “None of influenza A(H1N1) oseltamivir resistant viruses tested was resistant; also recorded: sensitive; also recorded: still susceptible”. Moreover, the IC50 in test [2] (read-out: baseline zanamivir IC50-value (mean±SD)) is 1.05 nM and 0.98 nM; in test [2] (read-out: mean IC50 ± SD) it was 0.87 ± 0.22 nM.

Source of the values: paper PMC3249654 (The Open Virology Journal, 2011).
